Laboratory results from publication PMC11126973, “Targeting the Plasmodium falciparum UCHL3 ubiquitin hydrolase using chemically constrained peptides” (Proceedings of the National Academy of Sciences of the …, 2024).
Where “and” joins values, the source holds several entries; their conditions need not be identical. Equal values may be shown once. Bridge positions count the residues as written; N and C are the ends. Square brackets hold non-standard residues; d marks the D form. Peptide text beside a SMILES is read from it.

Assays:
PfUCHL3 [1] = biological target: T1, PfUCHL3 (Plasmodium falciparum, UniProt Q8IKM8); assay: biochemical; assay type: binding; parameters: His tag (TEV-cleavable) (cleaved yes); made in house; conditions: for Kd: BLI, 25 °C
T1 sequence (Q8IKM8 1-232): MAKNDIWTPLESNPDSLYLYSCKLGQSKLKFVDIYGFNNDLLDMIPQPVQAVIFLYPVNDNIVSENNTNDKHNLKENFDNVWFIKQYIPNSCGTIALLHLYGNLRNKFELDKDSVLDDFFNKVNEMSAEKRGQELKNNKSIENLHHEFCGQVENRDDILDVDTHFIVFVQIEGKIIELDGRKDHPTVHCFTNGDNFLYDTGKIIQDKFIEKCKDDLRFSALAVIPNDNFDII
Method: BLI experiments were performed using a ForteBio Octet Red96 instrument at 25 °C. Measurements were performed in black 96-well plates with a well volume of 200 μL. Biotinylated Avi-tagged PfUCHL3 was prepared in a buffer containing 50 mM Tris-HCl buffer, 200 mM NaCl, 0.5 mM TCEP, pH 7.5, and loaded at 1 μg/mL for 60 s. Peptides were diluted to a 4 μM stock concentration in the same DMSO:water mix in which they were resuspended from their stock powder (approximately 4%). The final dilutions (to 400 nM, 133.3 nM, and 44.4 nM) were performed in the same buffer as for the PfUCHL3. Streptavidin-coated tips were used with a new tip for each measurement, because regeneration with PfUCHL3 attached to the tip was not possible. The association and dissociation times were 300 s. All data analysis was performed with the instrument software.

HsUCHL3 = system: T2, HsUCHL3; assay: Ub-AMC deubiquitination (DUB) assay, HsUCHL3; assay type: biochemical, human; conditions: peptide 25 μM, HsUCHL3 31.25 pM
T2 construct: His tag (TEV-cleavable) (cleaved yes); made in house; host or cells: bacterial cells (purified 'as described above')
Method: (§1) DUB assays were performed in triplicate in 384-well plates (Corning) using a CLARIOstar plus plate reader. PfUCHL3, HsUCHL3, or peptide were diluted in reaction buffer (50 mM Tris-HCl buffer, pH 7.5, 150 mM NaCl, 1 mg/mL BSA, 0.1% DMSO, and 1 mM TCEP) to 4× the desired final peptide/protein concentration (to keep DMSO concentration constant in all reactions). Protein and peptide (or 0.1% DMSO (mock)) were mixed 1:1 and incubated for 10 min at room temperature, with each enzyme complex at 2× the desired final concentration. Enzyme:peptide mixture (10 μL) and Ub-AMC (7-amino-4-methylcoumarin, Boston Biochem) (250 nM, 10 μL) were mixed in a 384-well plate. DUB activity was measured by monitoring the increase in AMC fluorescence. The kinetic trace at each concentration of peptide was corrected for background and then the initial rate of reaction was determined. The rate of reaction was plotted against the concentration of peptide to determine the IC50 using the following equation: Y=Vmax^*X/IC50+X,
(§2) where Vmax is the reaction rate in the absence of inhibitor, X is the concentration of the peptide inhibitor, and IC50 is the peptide concentration when the rate was inhibited by the peptide by 50%. The data were fitted using Prism (Graphpad).

PfUCHL3 [2] = biological target: T1, PfUCHL3; assay: Thermal shift assay (TSA) of PfUCHL3 with peptides; assay type: binding; parameters: His tag (TEV-cleavable) (cleaved yes); made in house; host or cells: bacterial cells (purified 'as described above', C41); conditions: peptide 48 pM to 25 μM, PfUCHL3 5 μM
Method: Thermal shift assays were performed using a Bio-Rad CFX Connect qPCR instrument, whereby the unfolding is detected by fluorescence of the hydrophobic dye Sypro Orange that binds to the unfolded state of the protein. The experiments were performed in clear-bottom, half-volume, 96-well plates using final well volumes of 25 μL, PfUCHL3 concentration of 5 μM, peptide concentrations ranging from 47 pM to 25 μM, and Sypro Orange:protein concentration ratio of 1:400. PfUCHL3, Sypro orange, and peptide were diluted to 5x concentration in buffer, 1:2,000 concentration in buffer, and 4% DMSO, respectively, before being mixed in the well to a final 1x concentration in buffer. For the PfUCHL3-only control, the peptide was replaced with 4% DMSO and for the buffer control, the PfUCHL3 was replaced with buffer in the sample mix. The samples were incubated at 20 °C for 2 min before increasing by 0.5 °C every 30 s up to 90 °C. At each temperature, the fluorescence intensity was measured using an excitation wavelength of 471 nm and an emission wavelength of 570 nm. Data analysis was performed using the GraphPad Prism software.

PfUCHL3 [3] = biological target: T1, PfUCHL3; assay: biochemical; parameters: His tag (TEV-cleavable) (cleaved yes); made in house
Method: as §1, §2

| Compound | koff (PfUCHL3 [1]) [s⁻¹] | kon (PfUCHL3 [1]) [M⁻¹ s⁻¹] | Kd (PfUCHL3 [1]; 1:1 (1-site) model) [nM] | inhibitory effect on the human UCHL3 enzyme (HsUCHL3) | dose dependence of PfUCHL3 melting temperature (PfUCHL3 [2]) | Kd (PfUCHL3 [1]; complex profile fitted to heterogeneous model, the tighter of the two Kd values) | IC50 (PfUCHL3 [3]) [nM] |
| --- | --- | --- | --- | --- | --- | --- | --- |
| CC[C@H](C)[C@@H]1NC(=O)[C@H](Cc2ccc(O)cc2)NC(=O)[C@H](CCCNC(=N)N)NC(=O)[C@H](CCC(N)=O)NC(=O)[C@H](Cc2ccc(O)cc2)NC(=O)[C@H](CC(=O)O)NC(=O)[C@@H](Cc2c[nH]c3ccccc23)NC(=O)CSC[C@@H](C(=O)O)NC(=O)[C@H](Cc2c[nH]c3ccccc23)NC(=O)[C@H](CS)NC(=O)[C@H]([C@@H](C)O)NC(=O)[C@H]([C@@H](C)O)NC(=O)[C@H](CC(C)C)NC(=O)[C@H](CCCNC(=N)N)NC(=O)[C@H](Cc2ccccc2)NC(=O)[C@H](CCCCN)NC1=O [Peptide 58474] ({CH2CO}-[dW]DYQRYIKFRLTTCWC-OH; thioether N-16) | 0.00174 ± 9e-05 | 17100 ± 900 | 101 ± 7 |  |  |  |  |
| CC[C@H](C)[C@@H]1NC(=O)[C@H](Cc2c[nH]c3ccccc23)NC(=O)[C@H](CC(C)C)NC(=O)[C@H](CCCNC(=N)N)NC(=O)[C@@H](Cc2c[nH]c3ccccc23)NC(=O)CSC[C@@H](C(=O)O)NC(=O)[C@H](CC(=O)O)NC(=O)[C@H](Cc2ccc(O)cc2)NC(=O)[C@H](CCCNC(=N)N)NC(=O)[C@H](CC(N)=O)NC(=O)[C@H](Cc2ccc(O)cc2)NC(=O)[C@H](CCCNC(=N)N)NC(=O)[C@H](CCCNC(=N)N)NC(=O)[C@H](CCC(=O)O)NC(=O)[C@H](CO)NC(=O)[C@H](CC(C)C)NC1=O [Peptide 60296] ({CH2CO}-[dW]RLWILSERRYNRYDC-OH; thioether N-16) | 0.0053 ± 6e-05 | 569000 ± 16000 |  | Neither 60296 nor 60297 peptides showed any inhibitory effect | increase in a dose-dependent manner |  |  |
| CC(C)[C@@H]1NC(=O)[C@H](Cc2ccc(O)cc2)NC(=O)[C@H](Cc2c[nH]cn2)NC(=O)[C@H](Cc2c[nH]c3ccccc23)NC(=O)[C@@H]2CCCN2C(=O)[C@H](Cc2c[nH]c3ccccc23)NC(=O)[C@H](Cc2ccccc2)NC(=O)[C@H]([C@@H](C)O)NC(=O)[C@H]([C@@H](C)O)NC(=O)[C@@H](Cc2c[nH]c3ccccc23)NC(=O)CSC[C@@H](C(=O)O)NC(=O)[C@H](CCC(N)=O)NC1=O [Peptide 60297] ({CH2CO}-[dW]TTFWPWHYVQC-OH; thioether N-12) |  |  |  |  |  | 2 nM and ~2 nM | 1440 ± 371 |
